# Reference: US20030148963A1 (priority 2000, published 2003)
# Where two headings read alike, the source gives them in different places. Marks after values point to notes of the source that are not given here.
# Experiments:
# TNF-α = assay: Serum TNF-α in S. aureus infected mice (ELISA); format: in vivo, NMRI mice; conditions: six days after 1.4×10^7 CFU S. aureus; 12.5 mg/kg from three days prior; mean ± SEM, n = 6
# Procedure: The levels of TNF.- were determined using sandwich enzyme-linked immunosorbent assays (ELISA) kit from R&D Systems Minneapolis, Minn.).
# IL-6 [1] = assay: Serum IL-6 in CII immunized mice (B9 bioassay); format: in vivo, B10.QxDBA/1 female mice; conditions: serum at end of experiment, mean ± SEM
# Procedure: For quantification of serfu CII antibodies, 96-well plates (Nunc, Roskilde, Denmark) were coated overnight at 4° C. with 10 μg/ml of native CII. Standards and samples were diluted in 0.5% BSA-PBS. Biotinylated F(ab/)2 fragments of goat anti-mouse IgG (Jackson ImmunoResearch Laboratories, West Grove, Pa.) was used as secondary antibody. Development was performed using horseradish peroxidase 0.5 μg/ml and 2.5 mg of the enzyme substrate 2,2-azino-bis-(3-ethylbenzothiazoline sulfonic acid) (Sigma) per mal in citrate buffer (pH 4.2), containing 0.0075% H2O2. The absorbance was measured at 405 nm in a SPECTRAmax spectrophotometer (Molecular Devices, Calif.). IFN-γ levels in sera were quantified with an ELISA system previously described (13). Ninety-six well plates (Nunc) were coated with 2 μg/ml of rat anti-mouse IFN-γ mab (Pharmingen, San Diego, Calif.). Sera, recombinant IFN-γ (Genzyme, Cambridge, Mass.), biotinylated antibodies were all diluted in 0.05 M Tris pH 7.4+0.015 M NaCl. A biotinylated anti mouse IFN-γ antibody (2 μg/ml) (Pharmigen) was used as secondary antibody. After incubation with extravidin alkaline phosphatase 0.5 ?g/ml and alkaline phosphatase substrate 1 mg/ml (Sigma) the absorbance was measured at 405 nm. Interleukin 6 (IL-6) levels in serum and supernatants were measured by a bioassay using cell line B13.29, subclone B9, which is dependent on IL-6 for growth. […]
# TNF [2] = format: cell-based, NMRI mice; conditions: 24 h supernatant, mean ± SEM
# Procedure: Spleens were obtained from healthy NMRI mice. […] The cells (2×10^61/Ml) were cultured in Iscove's complete medium (10% FCS, 5×10^−5 M 2-mercaptoethanol, 2 mM L-glutamine, and 50 μg/ml gentamicin). […] To determine the proliferative response, the cells were cultured in 96-well plates (Nunc) for 3 days. The cultures were pulsed with 1 μCi of (^3H)TdR (Amersham, Bucks, UK) 12 h before harvest and calculation of TdR uptake in a beta counter. The levels of TNF.- were determined using sandwich enzyme-linked immunosorbent assays (ELISA) kit from R&D Systems Minneapolis, Minn.).
# IL-6 [3] = assay: Serum IL-6 in S. aureus infected mice (B9 bioassay); format: in vivo, NMRI mice; conditions: six days after 1.4×10^7 CFU S. aureus; 12.5 mg/kg from three days prior; mean ± SEM, n = 6
# Procedure: The cell line B 13,29, subclone B9, which is dependent on IL-6 for its growth, was used for IL-6 determinations. The cells were seeded into microtiter plates at a concentration of 5000 cells/well and samples in different dilutions were added. One μCi of (3H) TdR (Amersham) was added after 68 h of culture, and the cells were harvested 4 h later. The results were compared with recombinant IL-6 standard (Genzyme, Cambridge, Mass.). The B9 cells were previously shown not to react with several recombinant cytolines including IL.-1, IL.-, L-2, IL-3, IL-5, granulocyte/macrophage CS17, TNF.-, and IFN.-, There was only a weak reactivity with IL-4 [14].
# TNF [4] = format: cell-based, NMRI mice; conditions: spleen cells from non-infected in vivo etoposide-treated mice; mean ± SEM, four mice
# [5] = system: S. aureus-induced arthritis
# Procedure: NMRI mice of both sexes, 6-8 weeks old, were obtained from B&K Universal AB (Stockholm, Sweden). They were housed in the animal facility of the Department of Rheumatology, University of Göteborg, under standard conditions of light and temperature and fed standard laboratory chow and water ad libitum.
# S. aureus LS-1 strain was originally isolated from a swollen joint of a spontaneously arthritic NZB/W mouse. The bacteria were cultured for […] on blood agar plates, replated for another 24 h, washed and kept frozen at −20° C. in PBS containing 5% bovine serum albumin ([…]) and 10% dimethyl sulfoxide ([…]) until used. Before use, the bacterial solution was thawed and washed in PBS. Viable count was done to check the number of bacteria in each bacterial solution mice were given i.v. injections (in the tail vein) of 0.2 ml of bacterial solution
# All the mice were monitored individually. Their limbs were inspected visually every day during the experiment. Arthritis was defined as visible joint erytbema and/or swelling of at least one joint. To evaluate the intensity of arthritis, a clinical scoring system of 0 to 3 points for each limb was used (1 point, mild swelling and/or erytema; 2 points, moderate swelling and erythema; 3 points, marked swelling and erytema). The arthritic index was constructed by adding the scores from all four limbs for each animal. Previous study has shown that there is a good correlation between the clinical and histopathological appearance of arthritis. The overall condition of each mouse was evaluated by assessing its weight, general appearance, alertness, and skin abnormalities.
smiles,measurement,setting,value
COc1cc([C@@H]2c3cc4c(cc3[C@@H](O[C@@H]3O[C@@H]5CO[C@@H](C)O[C@H]5[C@H](O)[C@H]3O)[C@H]3COC(=O)[C@H]23)OCO4)cc(OC)c1O [Etoposide],Serum TNF-α,TNF-α,30 ± 12 pg/mL
same,IL-6,IL-6 [1]; Etoposide-pretreated,117 ± 21a pg/ml
same,IL-6,IL-6 [1]; Etoposide-treated (from day 40),179 ± 21^b pg/ml
same,"TNF, ConA stimulated","TNF [2]; etoposide 1 μM, four mice",167 ± 29 pg/mL
same,"TNF, TSST-1 stimulated","TNF [2]; etoposide 1 μM, four mice",64 ± 20 pg/mL
same,"TNF, ConA stimulated",TNF [2]; etoposide 10 μM,66 ± 19^b pg/ml
same,"TNF, TSST-1 stimulated",TNF [2]; etoposide 10 μM,38 ± 8^b pg/ml
same,"TNF, ConA stimulated",TNF [2]; etoposide 100 μM,10 ± 1^b pg/ml
same,"TNF, TSST-1 stimulated",TNF [2]; etoposide 100 μM,16 ± 3^b pg/ml
same,Serum IL-6,IL-6 [3],11.927 ± 4.610^b pg/ml
same,"TNF, ConA stimulated",TNF [4],138 ± 17 pg/mL
same,"TNF, TSST-1 stimulated",TNF [4],77 ± 22 pg/mL
same,Mortality,"[5]; 1-2×10^7 CFU S. aureus, starting four days after inoculation, FIG. 1B",higher mortality than the controls
same,Weight loss,"[5]; S. aureus infected mice vs controls, data not shown",more prominent
same,Frequency of clinical signs of arthritis,"[5]; six days after inoculation, 1-2×10^7 CFU S. aureus, controls 70%",35%
same,Mice died,"[5]; suboptimal dose of bacteria 1×10^6 CFU, 8 days after inoculation, controls 1 out of 10",6 out of 10
